Columns and labels:
HDAC3/NCor2 = HDAC3/NCor2 (Homo sapiens (Human), UniProt O15379); test: HDAC3 inhibition, Fluor de Lys fluorescent enzyme assay; type: biochemical; settings: 3 hours pre-incubation at room temp; 1.2 nM enzyme; 16 μM Fluor de Lys substrate; duplicate
Excerpt: (§1) Recombinant HDAC1 (cat #: 50051) and HDAC3/NCor2 (cat #: 50003) enzymes were purchased from BPS Bioscience (San Diego, CA, US). Assay reagents for the detection of HDAC enzyme activity (Fluor de Lys®—Green substrate and Developer kits) were purchased from Enzo Life Science (Farmingdale, NY, US). Plates used to conduct the enzyme reaction were Proxiplate-384 (cat #: 6008280) Plus from PerkinElmer (Waltham, MA, US). TSA, an HDAC inhibitor, was purchased from Enzo Life Science (cat #BML-GR309-9090) The remainder of the reagents used to prepare the assay buffer were purchased from Sigma-Aldrich (St Louis, MO, US). Unless stated otherwise, HDAC1 and 3 assays were conducted in 50 mM Tris buffer, pH 8, 137 mM NaCl, 2.7 mM KCl, 0.01% BSA.
(§2) IC50 determination for HDAC1 and HDAC3—Prior to adding reagents, 50 nL/well of compound were added to Proxiplates using an Echo dispenser instrument (Beckman Coulter, CA, US). After addition of compound, 2.5 μL/well of 2× enzyme solution was added and the enzyme was pre-incubated with compound for 3 hours at room temp. (˜22° C.). After the pre-incubation period, the enzyme reaction was initiated by adding 2.5 μL/well of 2× Fluor de Lys® substrate solution. The assay reaction was stopped after one hour by adding 5 μl/well of a 0.66× Developer solution containing TSA (3.2 μM). The final product of the enzyme reaction was read using a Spectramax plate reader instrument (Molecular Devices, CA, US) using a fluorescent readout (Ex 360 nm/Em 460 nm). The final enzyme concentrations in the assay buffer for HDAC1 and 3 were 6 and 1.2 nM, respectively. The final Fluor de Lys® substrate concentration in the assay buffer was 16 μM for all HDAC enzymes. IC50 values were determined using the following equation: […]
(§3) Where Efree and Eo are the free and total amount of HDAC enzyme in the reaction mixture, n is the hill coefficient, I is the free inhibitor concentration, and IC50 is the measure of the potency equivalent to the inhibitor concentration that leads to a 50% occupancy of the total enzyme. Each data was generated in duplicate.

Recombinant HDAC1 = Recombinant HDAC1 (Homo sapiens (Human), UniProt Q13547); test: HDAC1 inhibition, Fluor de Lys fluorescent enzyme assay; type: biochemical; settings: 3 hours pre-incubation at room temp; 6 nM enzyme; 16 μM Fluor de Lys substrate; duplicate
Recombinant HDAC1, sequence (Q13547 whole entry): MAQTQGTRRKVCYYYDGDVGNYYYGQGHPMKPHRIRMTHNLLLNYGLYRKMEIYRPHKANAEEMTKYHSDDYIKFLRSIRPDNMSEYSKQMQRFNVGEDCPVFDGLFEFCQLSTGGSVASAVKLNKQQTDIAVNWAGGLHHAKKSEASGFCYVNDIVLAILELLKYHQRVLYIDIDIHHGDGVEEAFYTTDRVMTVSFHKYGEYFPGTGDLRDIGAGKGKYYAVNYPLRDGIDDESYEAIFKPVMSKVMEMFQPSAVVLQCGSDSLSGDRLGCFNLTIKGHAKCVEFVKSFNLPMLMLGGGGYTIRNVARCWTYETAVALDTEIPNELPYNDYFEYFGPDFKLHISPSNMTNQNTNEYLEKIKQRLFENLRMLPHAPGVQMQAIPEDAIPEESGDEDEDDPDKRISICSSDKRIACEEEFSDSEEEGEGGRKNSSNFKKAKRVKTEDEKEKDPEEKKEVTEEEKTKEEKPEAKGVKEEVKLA
Excerpt: as §1, §2, §3

HDAC3/NCor2, sequence (O15379 whole entry): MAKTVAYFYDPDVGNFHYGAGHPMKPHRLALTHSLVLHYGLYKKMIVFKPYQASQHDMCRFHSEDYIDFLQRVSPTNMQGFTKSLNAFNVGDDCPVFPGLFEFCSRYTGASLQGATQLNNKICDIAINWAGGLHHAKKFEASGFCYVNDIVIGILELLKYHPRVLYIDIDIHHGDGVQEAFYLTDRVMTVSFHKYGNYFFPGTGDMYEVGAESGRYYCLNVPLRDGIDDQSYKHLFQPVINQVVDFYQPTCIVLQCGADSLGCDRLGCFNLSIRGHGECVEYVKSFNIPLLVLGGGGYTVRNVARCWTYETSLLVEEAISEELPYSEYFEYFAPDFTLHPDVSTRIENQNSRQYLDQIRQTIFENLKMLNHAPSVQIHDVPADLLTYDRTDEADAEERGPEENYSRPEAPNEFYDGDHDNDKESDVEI
HDAC3/NCor2, sequence (Q9Y618 395-489 partner): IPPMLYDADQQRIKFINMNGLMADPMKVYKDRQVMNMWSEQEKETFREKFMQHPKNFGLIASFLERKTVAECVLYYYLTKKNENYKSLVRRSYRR

Row | Compound | IC50 (HDAC3/NCor2) [nM] | IC50 (Recombinant HDAC1) [nM]
1 | CS(=N)(=O)c1ccc(C(=O)Nc2cc(-c3ccccn3)ccc2N)cc1 (stereo not drawn) [Compound 119, N-[2-amino-5-(2-pyridyl)phenyl]-4-(methylsulfonimidoyl)benzamide] | > 2000 | 100 to 500
2 | COCCS(=N)(=O)c1ccc(C(=O)Nc2cc(-c3cccs3)ccc2N)nc1 (stereo not drawn) [Compound 121, N-[2-amino-5-(2-thienyl)phenyl]-5-(2-methoxyethylsulfonimidoyl)pyridine-2-carboxamide] | 500 to 2000 | < 100
3 | N=S(=O)(c1ccc(C(=O)Nc2cc(-c3cccs3)ccc2N)cn1)C1CC1 (stereo not drawn) [Compound 122, N-[2-amino-5-(2-thienyl)phenyl]-6-(cyclopropylsulfonimidoyl)pyridine-3-carboxamide] | 500 to 2000 | < 100
4 | CS(=N)(=O)c1ccc(C(=O)Nc2cc(-c3cccs3)ccc2O)cc1 (stereo not drawn) [Compound 123, N-[2-hydroxy-5-(2-thienyl)phenyl]-4-(methylsulfonimidoyl)benzamide] | 500 to 2000 | < 100
5 | CS(=N)(=O)c1ccc(C(=O)Nc2cc(-c3cccs3)ccc2N)nn1 (stereo not drawn) [Compound 124, N-[2-amino-5-(2-thienyl)phenyl]-6-(methylsulfonimidoyl)pyridazine-3-carboxamide] | 100 to 500 | < 100
6 | CC(C)(C)C(=O)N=S(C)(=O)c1ccc(C(=O)Nc2cc(-c3cccs3)ccc2N)cc1 (stereo not drawn) [Compound 125, N-[2-amino-5-(2-thienyl)phenyl]-4-[N-(2,2-dimethylpropanoyl)-S-methyl-sulfonimidoyl]benzamide] | 500 to 2000 | < 100
7 | CS(=N)(=O)Cc1ccc(C(=O)Nc2cc(-c3cccs3)ccc2N)cc1 (stereo not drawn) [Compound 128, N-[2-amino-5-(2-thienyl)phenyl]-4-[(methylsulfonimidoyl)methyl]benzamide] | 500 to 2000 | < 100
8 | CS(=N)(=O)c1ccc(C(=O)Nc2cc(-c3ccc(F)cc3)ccc2N)cn1 (stereo not drawn) [Compound 129, N-[2-amino-5-(4-fluorophenyl)phenyl]-6-(methylsulfonimidoyl)pyridine-3-carboxamide] | 500 to 2000 | < 100
9 | CS(=N)(=O)c1ccc(C(=O)Nc2cc(-c3ccc(F)cc3)ccc2O)cc1 (stereo not drawn) [Compound 130, N-[5-(4-fluorophenyl)-2-hydroxy-phenyl]-4-(methylsulfonimidoyl)benzamide] | 500 to 2000 | < 100

The remaining lines, values ahead:

Row | IC50 (HDAC3/NCor2) [nM] | IC50 (Recombinant HDAC1) [nM] | Compound
10 | 500 to 2000 | < 100 | N=S(=O)(c1ccc(C(=O)Nc2cc(-c3cccnc3)ccc2N)cc1)C1CC1 (stereo not drawn) [Compound 116, N-[2-amino-5-(3-pyridyl)phenyl]-4-(cyclopropylsulfonimidoyl)benzamide]
11 | > 2000 | < 100 | CS(=N)(=O)c1ccc(C(=O)Nc2cc(-c3ccc(F)cc3F)ccc2N)cc1 (stereo not drawn) [Compound 117, N-[2-amino-5-(2,4-difluorophenyl)phenyl]-4-(methylsulfonimidoyl)benzamide]
12 | 500 to 2000 | < 100 | N=S(=O)(c1ccc(C(=O)Nc2cc(-c3ccc(F)cc3F)ccc2N)cc1)C1CC1 (stereo not drawn) [Compound 118, N-[2-amino-5-(2,4-difluorophenyl)phenyl]-4-(cyclopropylsulfonimidoyl)benzamide]
13 | > 2000 | 100 to 500 | N=S(=O)(c1ccc(C(=O)Nc2cc(-c3ccccn3)ccc2N)cc1)C1CC1 (stereo not drawn) [Compound 120, N-[2-amino-5-(2-pyridyl)phenyl]-4-(cyclopropylsulfonimidoyl)benzamide]
14 | 500 to 2000 | < 100 | C[S@@](=N)(=O)c1ccc(C(=O)Nc2cc(-c3ccc(F)cc3)ccc2N)cc1 [Compound 132, (R)—N-[2-amino-5-(4-fluorophenyl)phenyl]-4-(methylsulfonimidoyl)benzamide]
15 | 500 to 2000 | < 100 | C[S@](=N)(=O)c1ccc(C(=O)Nc2cc(-c3ccc(F)cc3)ccc2N)cc1 [Compound 134, (S)—N-[2-amino-5-(4-fluorophenyl)phenyl]-4-(methylsulfonimidoyl)benzamide]

— patent US20250136570A1 (Tango Therapeutics, Inc., priority 2021, published 2025)
